According to US7575882B2, “Compositions and methods for identifying modulators of TRPV2” (Janssen Pharmaceutica N. V., priority 2005, dated 2009):

Tests used:
[1] = target: T1, rat and human TRPV2 chimera RRH (Rattus norvegicus, UniProt Q9WUD2, A714S/D654T/DEL680-680/E685A/G695P/H651S/H683Q/K690T/K717Q/L688M/N655D/R687V/R694K/S723C/T698S); test: Calcium mobilization in HEK293 cells expressing TRPV2 chimera RRH; assay type: cell-based; conditions: expressed separately in HEK cells
T1 construct: expressed in transfected cells; host or cells: HEK293, transient, pCI-neo
T1 sequence (Q9WUD2 with tags, fused parts or gaps H651S/D654T/N655D/DEL680-680/H683Q/E685A/R687V/L688M/K690T/R694K/G695P/T698S/A714S/K717Q/S723C): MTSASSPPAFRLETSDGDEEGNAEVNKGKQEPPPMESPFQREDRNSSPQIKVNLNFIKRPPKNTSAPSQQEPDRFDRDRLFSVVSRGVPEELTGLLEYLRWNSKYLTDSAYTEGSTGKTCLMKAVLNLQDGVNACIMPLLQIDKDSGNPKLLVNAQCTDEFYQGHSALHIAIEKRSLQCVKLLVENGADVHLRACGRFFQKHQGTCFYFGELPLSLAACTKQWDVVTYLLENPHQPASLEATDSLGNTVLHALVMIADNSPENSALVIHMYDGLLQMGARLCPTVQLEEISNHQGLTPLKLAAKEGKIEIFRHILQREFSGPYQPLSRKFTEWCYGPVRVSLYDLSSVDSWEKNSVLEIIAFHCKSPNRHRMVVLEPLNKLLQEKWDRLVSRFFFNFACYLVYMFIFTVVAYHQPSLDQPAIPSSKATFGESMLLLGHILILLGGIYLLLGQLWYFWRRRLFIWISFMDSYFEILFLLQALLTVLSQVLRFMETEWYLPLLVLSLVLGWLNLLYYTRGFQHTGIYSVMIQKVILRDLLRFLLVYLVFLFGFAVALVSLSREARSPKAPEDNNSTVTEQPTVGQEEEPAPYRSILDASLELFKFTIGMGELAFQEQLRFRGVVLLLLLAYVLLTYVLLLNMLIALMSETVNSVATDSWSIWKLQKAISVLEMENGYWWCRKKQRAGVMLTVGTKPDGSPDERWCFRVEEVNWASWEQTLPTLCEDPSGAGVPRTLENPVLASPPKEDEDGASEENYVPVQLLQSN
Protocol: (§1) The deletion mutant constructs were then transfected into HEK293 cells using Fugene 6 reagent (Roche) as per the manufacturer's instructions. At 24 hours post-transfection, the cells were harvested and replated in fresh DMEM medium supplemented with 10% fetal bovine serum, 100 units/ml penicillin, and 100 μg/ml streptomycin. The cells were distributed onto poly-D-Lysine coated 96-or 384-well plates at a density of approximately 40,000 and 10,000 cells per well, respectively. At approximately 48 hours post-transfection, the medium was removed from the assay plate and replaced with Calcium 3 Dye Buffer (Molecular Devices) using the protocol available from the manufacturer. Calcium mobilization was triggered using Δ^9-THC or 2-APB or elevated temperature buffer and measured using either FLIPR or FLEX STATION instruments.
(§2) Based on the predicted topology and primary sequence features of TRPV2, TRPV2 are divided into 3 major domains: 1) the amino-terminal intracellular domain; 2) the transmembrane domain; and 3) the carboxyl-terminal intracellular domain. For a chimera, each domain can be of rat (R) or human (H) origin. Three rat and human TRPV2 chimera were constructed and tested herein. RRH (SEQ ID NO:15) was a chimera comprising rat 1-392 aa, rat 393-646 aa, and human 647-764 aa. RHR (SEQ ID NO:16) was a chimera comprising rat 1-392, human 391-646, and rat 647-761. […]

[2] = target: T2, co-expressed TRPV2 chimeras RRH and HRR (Rattus norvegicus, UniProt Q9WUD2); test: Calcium mobilization in HEK293 cells co-expressing TRPV2 chimeras RRH and HRR; assay type: cell-based, rat/human; conditions: co-expression in HEK cells
T2 construct: expressed in transfected cells; host or cells: HEK293, transient co-expression, pCI-neo
T2 sequence (Q9WUD2 with tags, fused parts or gaps H651S/D654T/N655D/DEL680-680/H683Q/E685A/R687V/L688M/K690T/R694K/G695P/T698S/A714S/K717Q/S723C): T1 sequence (Q9WUD2 with tags, fused parts or gaps H651S/D654T/N655D/DEL680-680/H683Q/E685A/R687V/L688M/K690T/R694K/G695P/T698S/A714S/K717Q/S723C)
T2 sequence (Q9WUD2 with tags, fused parts or gaps P38Q/R41G/N45K/S46F/S47A/K51R/DEL56-59/P60Y/P61R/N63G/S65G/DEL67-67/Q70P/E71D/D73N/S82N/V83A/E91D/T93A/L96P/R100S/W101K/N102T/A110E/Q129K/M137L/K144R/K150Q/L151P/E160D/F161Y/Q163R/D189N/L192A/H202G/T227S/E240Q/L245Q/A257S/P261A/S264I/I268T/H269S/M277A/E289D/S291R/H293L/G295D/DEL322-322/Y323L/Q324S/P325H/S346A/W351C/K353E/N368H/E384A/R388L/V390I/S391P/R392K): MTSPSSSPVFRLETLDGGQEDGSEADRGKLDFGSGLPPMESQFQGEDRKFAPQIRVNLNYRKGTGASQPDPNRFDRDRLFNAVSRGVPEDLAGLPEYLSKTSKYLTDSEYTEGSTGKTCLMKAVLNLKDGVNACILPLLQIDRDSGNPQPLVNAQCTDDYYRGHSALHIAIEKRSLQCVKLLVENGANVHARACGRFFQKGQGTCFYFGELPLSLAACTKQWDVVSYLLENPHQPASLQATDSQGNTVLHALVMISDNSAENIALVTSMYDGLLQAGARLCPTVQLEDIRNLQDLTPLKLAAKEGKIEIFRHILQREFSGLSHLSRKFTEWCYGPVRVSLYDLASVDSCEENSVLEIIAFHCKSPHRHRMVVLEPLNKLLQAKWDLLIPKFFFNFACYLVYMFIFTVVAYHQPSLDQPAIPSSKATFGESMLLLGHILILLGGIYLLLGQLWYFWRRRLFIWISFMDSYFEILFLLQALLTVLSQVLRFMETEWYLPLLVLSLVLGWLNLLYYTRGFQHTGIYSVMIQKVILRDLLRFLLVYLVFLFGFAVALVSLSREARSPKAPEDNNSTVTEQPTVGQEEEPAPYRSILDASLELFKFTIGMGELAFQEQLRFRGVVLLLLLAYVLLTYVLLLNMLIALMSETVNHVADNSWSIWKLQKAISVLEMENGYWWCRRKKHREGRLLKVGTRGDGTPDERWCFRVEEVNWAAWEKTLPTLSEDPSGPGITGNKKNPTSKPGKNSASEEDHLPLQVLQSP
Protocol: as §1, §2

Delta-9-tetrahydrocannabinol [Δ^9-THC]
response of chimera RRH to the compound [1]: poorly | response of cells co-expressing both chimeras to the compound [2]: fully responsive
